Test results taken from ChEMBL document CHEMBL1141126, “Improving the antiviral efficacy and selectivity of HIV-1 reverse transcriptase inhibitor TSAO-T by the introduction of functional groups at the N-3 position” (J Med Chem, 2005).

What was measured:
[1] = target: Human immunodeficiency virus type 1 reverse transcriptase (Human immunodeficiency virus 1, UniProt Q72547); assay: Inhibitory concentration required to inhibit recombinant HIV-1 reverse transcriptase
CCRF-CEM [2] = assay: Cytostatic concentration required to inhibit cell proliferation in human CEM cell line; Range 10-50; assay type: functional
CCRF-CEM [3] = assay: Ratio of cytostatic concentration to effective concentration in human CEM cell line; Range 1000-5000; assay type: functional
[4] = tested on: Human immunodeficiency virus 1; assay: Effective concentration required to inhibit HIV-1 induced cytopathicity in human CEM cell line; assay type: functional, organism-based; conditions: Human immunodeficiency virus 1, CCRF-CEM
[5] = tested on: Human immunodeficiency virus 2; assay: Effective concentration required to inhibit HIV-2 induced cytopathicity in human CEM cell line; assay type: functional, organism-based; conditions: Human immunodeficiency virus 2, CCRF-CEM
[6] = tested on: Human immunodeficiency virus 2; assay: Effective concentration required to inhibit HIV-2 induced cytopathicity in human MT-4 cell line; assay type: functional, organism-based; conditions: Human immunodeficiency virus 2, MT4
[7] = tested on: Human immunodeficiency virus 1; assay: Effective concentration required to inhibit HIV-1/138K induced cytopathicity in human CEM cell line; assay type: functional, organism-based; conditions: Human immunodeficiency virus 1, CCRF-CEM
CCRF-CEM [8] = assay: Cytostatic concentration required to inhibit cell proliferation in human CEM cell line; assay type: functional
CCRF-CEM [9] = assay: Ratio of cytostatic concentration to effective concentration in human CEM cell line; assay type: functional
[10] = tested on: Human immunodeficiency virus 1; assay: Effective concentration required to inhibit HIV-1 induced cytopathicity in human MT-4 cell line; assay type: functional, organism-based; conditions: Human immunodeficiency virus 1, MT4

| Compound | IC50 [1] | CC50 (CCRF-CEM [2]) | SI (CCRF-CEM [3]) | EC50 [4] | EC50 [5] | EC50 [6] | EC50 [7] | CC50 (CCRF-CEM [8]) | SI (CCRF-CEM [9]) | EC50 [10] |
| --- | --- | --- | --- | --- | --- | --- | --- | --- | --- | --- |
| CNC(=O)CCCCn1c(=O)c(C)cn([C@@H]2O[C@H](CO[Si](C)(C)C(C)(C)C)[C@@]3(OS(=O)(=O)C=C3N)[C@H]2O[Si](C)(C)C(C)(C)C)c1=O | 0.56 µM | 50 µM | 5000 | 0.01 µM | > 10 µM | > 10 µM | ≥ 2 µM |  |  |  |
| CCOC(=O)CCCCCn1c(=O)c(C)cn([C@@H]2O[C@H](CO[Si](C)(C)C(C)(C)C)[C@@]3(OS(=O)(=O)C=C3N)[C@H]2O[Si](C)(C)C(C)(C)C)c1=O | > 500 µM |  |  | 0.13 µM | > 50 µM | > 50 µM | > 10 µM | 40.6 µM | 312 | 0.27 µM |
| Cc1cn([C@@H]2O[C@H](CO[Si](C)(C)C(C)(C)C)[C@@]3(OS(=O)(=O)C=C3N)[C@H]2O[Si](C)(C)C(C)(C)C)c(=O)n(CCBr)c1=O | > 500 µM |  |  | 0.03 µM | > 50 µM | > 50 µM | > 50 µM | 129 µM | 4300 | 0.17 µM |
| COCCn1c(=O)c(C)cn([C@@H]2O[C@H](CO[Si](C)(C)C(C)(C)C)[C@@]3(OS(=O)(=O)C=C3N)[C@H]2O[Si](C)(C)C(C)(C)C)c1=O | 2.9 µM |  |  | 0.08 µM | > 10 µM | > 10 µM | > 10 µM | 38.8 µM | 485 | 0.16 µM |
| Cc1cn([C@@H]2O[C@H](CO[Si](C)(C)C(C)(C)C)[C@@]3(OS(=O)(=O)C=C3N)[C@H]2O[Si](C)(C)C(C)(C)C)c(=O)n(C/C=C/CO)c1=O | 4.5 µM |  |  | 0.02 µM | > 2 µM | > 2 µM | 4.5 µM | 4.41 µM | 220 | 0.07 µM |
| Cc1cn([C@@H]2O[C@H](CO[Si](C)(C)C(C)(C)C)[C@@]3(OS(=O)(=O)C=C3N)[C@H]2O[Si](C)(C)C(C)(C)C)c(=O)n(CCCN2C(=O)c3ccccc3C2=O)c1=O | > 500 µM |  |  | 0.11 µM | > 250 µM | > 250 µM | > 250 µM | > 250 µM | >2272 | 0.29 µM |
| Cc1cn([C@@H]2O[C@H](CO[Si](C)(C)C(C)(C)C)[C@@]3(OS(=O)(=O)C=C3N)[C@H]2O[Si](C)(C)C(C)(C)C)c(=O)n(CCCNC(=O)OCc2ccccc2)c1=O | > 500 µM |  |  | 0.15 µM | > 50 µM | > 50 µM | > 50 µM | 229 µM | 1526 | 0.17 µM |
| Cc1cn([C@@H]2O[C@H](CO[Si](C)(C)C(C)(C)C)[C@@]3(OS(=O)(=O)C=C3N)[C@H]2O[Si](C)(C)C(C)(C)C)c(=O)n(CC2CC2)c1=O | > 500 µM |  |  | 0.18 µM | > 10 µM | > 50 µM | > 50 µM | 60.4 µM | 335 | 0.2 µM |
